From ChEMBL document CHEMBL5465560, “Selectivity Literature for EUbOPEN Chemogenomic Library” (2024)
Each block holds one compound with its values, some of them ahead of it.

Tests used:
[1] = molecular target: Serine/threonine-protein kinase Nek7 (Homo sapiens) (UniProt Q8TDX7); experiment: Selectivity interaction (ActivX KiNativ screen (kinase selectivity in THP-1 cell lysates)) EUB0000639a NEK7; assay type: subcellular; conditions: lysate, at 5 µM
[2] = molecular target: Calcium/calmodulin-dependent protein kinase type II subunit delta (Homo sapiens) (UniProt Q13557); experiment: Selectivity interaction (ActivX KiNativ screen (kinase selectivity in THP-1 cell lysates)) EUB0000639a CAMK2D; assay type: subcellular; conditions: lysate
[3] = molecular target: T1, Mitogen-activated protein kinase kinase kinase 5 (Homo sapiens) (UniProt Q99683); experiment: Selectivity interaction (KinomeScan (DiscoverX)) EUB0000595a MAP3K5; conditions: at 10 µM
T1 sequence (whole entry): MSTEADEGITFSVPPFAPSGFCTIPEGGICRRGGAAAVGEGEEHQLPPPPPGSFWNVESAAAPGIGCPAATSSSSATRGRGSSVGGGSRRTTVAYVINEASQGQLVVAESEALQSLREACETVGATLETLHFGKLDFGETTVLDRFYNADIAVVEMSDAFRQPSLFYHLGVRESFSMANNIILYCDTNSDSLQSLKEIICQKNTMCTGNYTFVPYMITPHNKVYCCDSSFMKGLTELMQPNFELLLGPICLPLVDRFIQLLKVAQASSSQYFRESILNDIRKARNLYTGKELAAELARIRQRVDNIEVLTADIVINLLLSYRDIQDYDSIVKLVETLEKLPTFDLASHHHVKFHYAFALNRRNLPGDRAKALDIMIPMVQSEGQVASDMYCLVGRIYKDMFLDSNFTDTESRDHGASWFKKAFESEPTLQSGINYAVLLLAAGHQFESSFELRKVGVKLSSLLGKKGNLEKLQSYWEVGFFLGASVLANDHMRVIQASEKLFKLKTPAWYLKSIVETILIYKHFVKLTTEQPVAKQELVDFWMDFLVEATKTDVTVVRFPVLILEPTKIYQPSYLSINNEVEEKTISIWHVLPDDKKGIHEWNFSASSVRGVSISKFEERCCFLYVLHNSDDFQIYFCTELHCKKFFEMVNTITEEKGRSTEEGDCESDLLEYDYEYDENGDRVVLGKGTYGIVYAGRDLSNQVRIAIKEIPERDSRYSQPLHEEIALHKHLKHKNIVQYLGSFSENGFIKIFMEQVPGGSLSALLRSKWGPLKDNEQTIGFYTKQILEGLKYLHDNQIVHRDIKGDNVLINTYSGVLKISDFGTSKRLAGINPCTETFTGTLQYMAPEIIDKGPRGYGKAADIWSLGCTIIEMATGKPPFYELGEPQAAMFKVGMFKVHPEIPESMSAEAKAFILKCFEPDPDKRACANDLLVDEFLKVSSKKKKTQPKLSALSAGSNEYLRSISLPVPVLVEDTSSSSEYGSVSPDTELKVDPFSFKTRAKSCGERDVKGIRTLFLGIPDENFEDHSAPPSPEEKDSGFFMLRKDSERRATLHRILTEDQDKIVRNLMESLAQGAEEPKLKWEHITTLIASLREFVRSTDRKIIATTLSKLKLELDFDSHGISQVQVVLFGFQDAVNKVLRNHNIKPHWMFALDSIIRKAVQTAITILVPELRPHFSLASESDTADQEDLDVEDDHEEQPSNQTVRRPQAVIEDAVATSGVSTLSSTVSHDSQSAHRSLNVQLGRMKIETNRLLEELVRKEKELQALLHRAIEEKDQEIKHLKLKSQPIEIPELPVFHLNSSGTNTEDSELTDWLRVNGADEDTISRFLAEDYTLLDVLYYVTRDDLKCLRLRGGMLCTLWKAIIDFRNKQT

[4] = molecular target: T2, Serine/threonine-protein kinase BRSK2 (Homo sapiens) (UniProt Q8IWQ3); experiment: Selectivity interaction (KinomeScan (DiscoverX)) EUB0000655a BRSK2; conditions: at 10 µM
T2 sequence (whole entry): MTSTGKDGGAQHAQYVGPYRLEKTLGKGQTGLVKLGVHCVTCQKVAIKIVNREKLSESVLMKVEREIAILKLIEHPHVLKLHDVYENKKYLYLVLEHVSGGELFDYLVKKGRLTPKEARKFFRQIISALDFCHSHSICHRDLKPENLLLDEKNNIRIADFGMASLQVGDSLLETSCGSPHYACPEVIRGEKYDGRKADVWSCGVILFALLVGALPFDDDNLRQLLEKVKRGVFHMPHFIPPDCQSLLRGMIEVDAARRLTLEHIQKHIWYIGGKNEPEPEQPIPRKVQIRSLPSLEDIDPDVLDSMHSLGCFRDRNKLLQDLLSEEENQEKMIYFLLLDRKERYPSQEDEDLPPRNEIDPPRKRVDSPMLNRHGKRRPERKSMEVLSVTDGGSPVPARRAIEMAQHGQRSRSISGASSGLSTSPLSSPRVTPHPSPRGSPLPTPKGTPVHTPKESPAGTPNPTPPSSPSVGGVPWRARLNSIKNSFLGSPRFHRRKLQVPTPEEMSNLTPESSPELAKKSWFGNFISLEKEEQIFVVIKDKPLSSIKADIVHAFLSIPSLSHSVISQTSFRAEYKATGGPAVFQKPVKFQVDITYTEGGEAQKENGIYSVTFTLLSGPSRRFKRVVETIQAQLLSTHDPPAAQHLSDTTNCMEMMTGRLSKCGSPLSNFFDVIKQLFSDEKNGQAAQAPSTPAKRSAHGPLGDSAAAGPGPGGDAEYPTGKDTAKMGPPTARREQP

[5] = system: Leucine-rich repeat serine/threonine-protein kinase 2 (Homo sapiens), Q5S007 [G2019S]; conditions: at 1 µM
[6] = molecular target: T3, MAP kinase-activated protein kinase 5 (Homo sapiens) (UniProt Q8IW41); experiment: Selectivity interaction (KinomeScan (DiscoverX)) EUB0001619a MAPKAPK5; conditions: at 1 µM
T3 sequence (whole entry): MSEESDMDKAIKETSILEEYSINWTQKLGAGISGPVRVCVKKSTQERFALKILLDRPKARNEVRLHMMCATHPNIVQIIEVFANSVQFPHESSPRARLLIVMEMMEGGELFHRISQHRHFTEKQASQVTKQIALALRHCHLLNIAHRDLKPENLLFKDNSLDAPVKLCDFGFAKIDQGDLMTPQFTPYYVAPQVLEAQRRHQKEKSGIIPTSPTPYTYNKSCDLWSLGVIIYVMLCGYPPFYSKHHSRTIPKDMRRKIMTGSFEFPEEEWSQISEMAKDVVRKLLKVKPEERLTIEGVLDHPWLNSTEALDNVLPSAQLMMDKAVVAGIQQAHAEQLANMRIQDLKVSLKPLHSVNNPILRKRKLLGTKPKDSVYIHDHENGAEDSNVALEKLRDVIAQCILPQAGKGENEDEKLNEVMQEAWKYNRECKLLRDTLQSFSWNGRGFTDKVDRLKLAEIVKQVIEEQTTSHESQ

hERG (KCNH2) = hERG (KCNH2) (Homo sapiens, UniProt Q12809); experiment: Selectivity interaction (Safety Panel 44tm (Eurofins)) EUB0000162b KCNH2; conditions: at 10 µM, read-out: % of control
Chain of hERG (KCNH2) (Q12809 whole entry): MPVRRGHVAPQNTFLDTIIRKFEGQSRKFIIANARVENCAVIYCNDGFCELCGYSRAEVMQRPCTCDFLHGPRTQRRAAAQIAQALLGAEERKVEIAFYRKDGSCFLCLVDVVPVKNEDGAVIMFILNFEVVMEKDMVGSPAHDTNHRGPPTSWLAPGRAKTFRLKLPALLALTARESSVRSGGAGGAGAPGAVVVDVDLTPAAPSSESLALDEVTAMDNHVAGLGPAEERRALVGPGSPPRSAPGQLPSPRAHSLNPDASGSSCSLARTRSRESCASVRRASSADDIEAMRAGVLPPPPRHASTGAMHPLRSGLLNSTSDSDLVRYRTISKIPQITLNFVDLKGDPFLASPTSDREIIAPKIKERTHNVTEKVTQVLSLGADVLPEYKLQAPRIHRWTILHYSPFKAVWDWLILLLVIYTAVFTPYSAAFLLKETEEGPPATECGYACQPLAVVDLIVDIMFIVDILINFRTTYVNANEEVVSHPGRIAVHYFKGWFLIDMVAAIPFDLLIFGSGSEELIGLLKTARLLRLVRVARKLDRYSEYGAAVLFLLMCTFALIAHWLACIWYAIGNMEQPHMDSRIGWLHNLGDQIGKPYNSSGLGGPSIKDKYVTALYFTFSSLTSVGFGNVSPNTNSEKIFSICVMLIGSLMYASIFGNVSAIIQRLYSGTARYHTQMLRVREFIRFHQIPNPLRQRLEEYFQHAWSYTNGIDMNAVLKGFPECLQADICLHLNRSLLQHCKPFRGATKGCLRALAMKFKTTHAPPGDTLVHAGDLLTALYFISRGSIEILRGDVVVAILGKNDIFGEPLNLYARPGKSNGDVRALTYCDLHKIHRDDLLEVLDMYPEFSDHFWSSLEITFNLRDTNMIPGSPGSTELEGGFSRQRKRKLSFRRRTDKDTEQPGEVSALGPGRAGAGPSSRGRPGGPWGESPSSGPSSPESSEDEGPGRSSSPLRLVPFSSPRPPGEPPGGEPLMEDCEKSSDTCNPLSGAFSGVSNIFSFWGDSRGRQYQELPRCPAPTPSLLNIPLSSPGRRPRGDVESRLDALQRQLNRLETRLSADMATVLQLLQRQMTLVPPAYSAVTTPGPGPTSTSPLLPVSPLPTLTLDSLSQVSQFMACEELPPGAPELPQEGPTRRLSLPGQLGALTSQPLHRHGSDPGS

Chain of Calcium/calmodulin-dependent protein kinase type II subunit delta (Homo sapiens) (Q13557 whole entry): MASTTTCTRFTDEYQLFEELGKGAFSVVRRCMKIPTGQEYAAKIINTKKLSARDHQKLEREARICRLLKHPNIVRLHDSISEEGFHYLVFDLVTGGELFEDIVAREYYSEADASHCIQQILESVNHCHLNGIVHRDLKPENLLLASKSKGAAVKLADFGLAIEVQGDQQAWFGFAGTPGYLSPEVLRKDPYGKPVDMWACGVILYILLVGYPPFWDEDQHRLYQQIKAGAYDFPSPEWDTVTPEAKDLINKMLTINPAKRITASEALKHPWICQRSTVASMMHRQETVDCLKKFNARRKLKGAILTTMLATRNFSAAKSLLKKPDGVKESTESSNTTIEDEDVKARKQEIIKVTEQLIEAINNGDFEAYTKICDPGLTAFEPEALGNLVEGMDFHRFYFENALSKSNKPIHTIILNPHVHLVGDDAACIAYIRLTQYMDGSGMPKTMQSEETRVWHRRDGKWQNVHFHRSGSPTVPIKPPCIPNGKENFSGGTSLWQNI
Chain of Serine/threonine-protein kinase Nek7 (Homo sapiens) (Q8TDX7 whole entry, looked up): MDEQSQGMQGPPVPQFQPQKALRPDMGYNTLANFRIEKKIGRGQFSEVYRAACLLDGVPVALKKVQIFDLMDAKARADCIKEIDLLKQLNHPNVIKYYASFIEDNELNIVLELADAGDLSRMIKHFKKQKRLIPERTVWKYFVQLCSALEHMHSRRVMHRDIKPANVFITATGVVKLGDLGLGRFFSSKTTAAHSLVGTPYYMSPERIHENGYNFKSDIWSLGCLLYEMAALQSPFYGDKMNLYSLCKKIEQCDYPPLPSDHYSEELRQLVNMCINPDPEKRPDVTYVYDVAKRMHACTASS
Chain of Leucine-rich repeat serine/threonine-protein kinase 2 (Homo sapiens), Q5S007 [G2019S] (Q5S007 whole entry G2019S): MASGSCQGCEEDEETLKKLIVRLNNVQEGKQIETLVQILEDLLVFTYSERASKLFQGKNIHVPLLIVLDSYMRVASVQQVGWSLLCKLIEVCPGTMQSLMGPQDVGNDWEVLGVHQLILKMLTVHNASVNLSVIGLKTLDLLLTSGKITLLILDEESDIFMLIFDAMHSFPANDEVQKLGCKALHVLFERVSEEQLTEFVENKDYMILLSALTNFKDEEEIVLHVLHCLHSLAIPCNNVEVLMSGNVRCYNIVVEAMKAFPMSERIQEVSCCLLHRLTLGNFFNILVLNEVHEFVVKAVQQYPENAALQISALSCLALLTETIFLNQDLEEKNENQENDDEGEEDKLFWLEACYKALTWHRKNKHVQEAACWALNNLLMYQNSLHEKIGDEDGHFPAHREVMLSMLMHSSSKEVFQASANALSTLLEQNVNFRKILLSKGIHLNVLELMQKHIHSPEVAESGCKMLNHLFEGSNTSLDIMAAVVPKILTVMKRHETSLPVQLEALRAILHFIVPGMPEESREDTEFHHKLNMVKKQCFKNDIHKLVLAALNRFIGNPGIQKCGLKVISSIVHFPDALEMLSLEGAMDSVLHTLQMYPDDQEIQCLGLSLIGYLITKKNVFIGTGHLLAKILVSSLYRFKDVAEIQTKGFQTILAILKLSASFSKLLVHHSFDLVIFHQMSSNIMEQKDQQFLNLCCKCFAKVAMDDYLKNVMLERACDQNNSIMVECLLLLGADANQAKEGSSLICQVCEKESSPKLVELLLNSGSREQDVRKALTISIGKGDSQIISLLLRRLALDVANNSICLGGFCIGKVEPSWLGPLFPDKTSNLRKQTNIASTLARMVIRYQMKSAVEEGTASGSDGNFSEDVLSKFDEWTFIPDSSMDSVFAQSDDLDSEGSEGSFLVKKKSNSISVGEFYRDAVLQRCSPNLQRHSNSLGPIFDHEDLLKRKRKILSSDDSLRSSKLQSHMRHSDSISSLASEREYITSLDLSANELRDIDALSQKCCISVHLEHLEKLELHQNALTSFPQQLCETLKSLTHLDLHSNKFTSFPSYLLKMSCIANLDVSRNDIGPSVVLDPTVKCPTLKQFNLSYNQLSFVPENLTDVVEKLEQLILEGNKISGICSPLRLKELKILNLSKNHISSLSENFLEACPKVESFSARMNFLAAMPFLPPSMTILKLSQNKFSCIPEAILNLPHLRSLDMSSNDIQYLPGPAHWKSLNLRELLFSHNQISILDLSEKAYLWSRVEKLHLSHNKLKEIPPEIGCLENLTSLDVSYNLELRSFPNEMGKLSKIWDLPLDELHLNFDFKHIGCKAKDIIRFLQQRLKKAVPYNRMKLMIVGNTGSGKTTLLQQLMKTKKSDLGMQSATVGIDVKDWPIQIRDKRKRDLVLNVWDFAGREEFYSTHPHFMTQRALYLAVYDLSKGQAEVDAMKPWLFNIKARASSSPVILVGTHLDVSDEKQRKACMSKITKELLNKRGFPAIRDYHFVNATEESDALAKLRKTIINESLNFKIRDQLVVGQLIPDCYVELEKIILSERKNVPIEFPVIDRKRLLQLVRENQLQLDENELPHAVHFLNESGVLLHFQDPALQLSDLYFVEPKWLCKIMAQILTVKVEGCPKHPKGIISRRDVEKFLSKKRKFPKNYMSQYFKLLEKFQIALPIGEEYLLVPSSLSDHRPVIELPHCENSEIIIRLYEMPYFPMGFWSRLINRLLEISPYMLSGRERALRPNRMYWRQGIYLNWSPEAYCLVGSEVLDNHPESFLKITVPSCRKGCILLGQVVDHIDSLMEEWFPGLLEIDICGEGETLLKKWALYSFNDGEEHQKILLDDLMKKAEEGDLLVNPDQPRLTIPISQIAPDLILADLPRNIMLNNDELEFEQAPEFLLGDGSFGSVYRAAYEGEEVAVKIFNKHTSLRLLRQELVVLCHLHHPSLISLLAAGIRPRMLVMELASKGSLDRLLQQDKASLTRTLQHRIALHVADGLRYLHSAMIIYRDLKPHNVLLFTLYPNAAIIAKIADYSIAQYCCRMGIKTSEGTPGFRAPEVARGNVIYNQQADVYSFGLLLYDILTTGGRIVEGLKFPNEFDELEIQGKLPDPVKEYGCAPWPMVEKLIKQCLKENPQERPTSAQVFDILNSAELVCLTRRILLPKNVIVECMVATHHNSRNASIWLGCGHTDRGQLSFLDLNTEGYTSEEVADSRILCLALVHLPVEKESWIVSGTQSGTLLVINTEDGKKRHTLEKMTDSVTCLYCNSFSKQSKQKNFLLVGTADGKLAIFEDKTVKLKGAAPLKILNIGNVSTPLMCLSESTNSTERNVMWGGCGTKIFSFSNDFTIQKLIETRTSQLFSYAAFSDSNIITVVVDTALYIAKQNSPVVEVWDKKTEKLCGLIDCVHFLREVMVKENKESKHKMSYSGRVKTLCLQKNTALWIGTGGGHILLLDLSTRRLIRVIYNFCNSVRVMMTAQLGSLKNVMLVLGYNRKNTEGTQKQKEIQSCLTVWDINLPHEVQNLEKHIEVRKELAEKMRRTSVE

% of inhibition [1]: -1.4% | % of inhibition ([2]; at 0.01 µM): 14.2% | % of inhibition ([2]; at 0.04 µM): 9.6% | % of inhibition ([2]; at 0.2 µM): 16.3% | % of inhibition ([2]; at 1 µM): 36.4% | % of inhibition ([2]; at 5 µM): 61.2%
SMILES: CC[C@@H]1[C@H](F)C(=O)N[C@@H]1COc1nccc2cc(C(N)=O)c(OC)cc12 [ZIMLOVISERTIB]

SMILES: COCC(=O)NC/C=C/c1ccc2ncnc(Nc3ccc(Oc4ccc(C)nc4)c(C)c3)c2c1 [CP-724714]
% of control [3]: 90%

SMILES: CN(C)CCOc1ccc(-c2nc(-c3ccncc3)c(-c3ccc4c(c3)CC/C4=N\O)[nH]2)cc1
% of control [4]: 88%

SMILES: N#Cc1cccc(-c2c[nH]c3ncnc(N4CCOCC4)c23)c1
% of control [5]: 75% | % of control [6]: 100%

SMILES: CN(C)C(=O)Cn1cc(-c2ccc(-c3cncc4ccccc34)cc2)cn1
activity (hERG (KCNH2)): 85%
